In US20260008793A1, “IONIZABLE CATIONIC LIPIDS INCORPORATING SILICON” (ALDEXCHEM KFT., priority 2022, published 2026):

What was measured:
[1] = LNP size, PDI and zeta potential by Dynamic Light Scattering (Method A); assay type: physicochemical; details: LNP formulated by Method A; for Zeta potential (mV): 1xPBS pH 7.4; for PDI / Size (nm): DLS; for Size (nm): Luciferase-mRNA loaded
Protocol: (§1) The synthesized lipids were tested in term of in vitro transfection efficacy and toxicity on HeLa cells. In order to perform the mentioned biological tests, appropriate LNPs had to be formulated from the synthesized lipids. The formulation technique was different in Method A and B. The particle size, PDI and zeta potential of resulting LNPs were determined by means of Dynamic Light Scattering technique (DLS). Prior to biological testing the encapsulation efficiency (EE) of the loaded LNPs was determined by using RiboGreen RNA assay. In case of Method A Luciferase-mRNA while in case of Method B GFP-mRNA was transfected into the cells. In parallel with the transfection experiments, toxicity of the investigated LNPs was determined, in case of Method A resazurin assay while in case of Method B MTT assay was used. In the case of some lipids, the apparent pKa in LNPs was determined by using TNS titration based on the method described: Angew Chem Int Ed Engl. 2012, 51 (34), 8529-8533, doi: 10.1002/anie.201203263).
• 1. If needed, prepare stock solutions by solving known amounts of lipid powder into an appropriate solvent. The recommended solvent is Ethanol and the recommended concentration is typically in the range 10-50 mM. Higher concentrations are preferred to allow flexibility on mRNA-LNP concentration. • 2. Remove the lipid stock solutions from the −20° C. freezer. For long-term storage, −80° C. is used. • 3. Check the vials for precipitation, DOPE (CAS #4004-05-1) (20 mM) and DSPE-PEG (CAS #474922-26-4) (5 mM) may need a 5-30 minute incubation step at 37° C. with intermittent vortexing to resuspend all contents. […] As a last resort, lipids may be heated to 50° C. to resuspend, time should be kept as short as possible to prevent oxidation or other modifying or degradative processes. • 4. Mix the lipids by vortexing for 2 minutes. • 5. […] Cooling the solution prevent excessive evaporation of ethanol or similar solvents upon opening. • 6. Meanwhile, thaw the RNA samples, including the latest SecNLuc control, by inserting the frozen tube in a room temperature aluminium block. • 7. Prepare for each LNP-formulation with identical mRNA component, an RNA master mix according to Table 1 below in a fresh tube. Use of a master mix allows more precise comparison of lipid formulations relative to each other. Split the master mix over a number of fresh tubes equal to the number of samples+controls. Each tube contains 375 μl of mRNA in 10 mM Citrate pH 4.0. • 8. Prepare for each LNP formulation with identical lipid composition a Lipid master mix according to Table 1 below in a fresh tube, exclude the lipid of interest. Use of a master mix allows more precise comparison of the novel ionizable lipid relative to each other. Split the master mix over a number of fresh tubes equal to the number of samples+controls. Each tube contains 65.5 μl of lipid master mix. • 9. Add the ionizable lipid of interest to the equally divide lipid master mix. Mix well by pipetting up and down. Label the tube according to the ionizable lipid used. • 10. Power on the ‘L 1 formulation machine’ (L 1 FM) and allow it to do a calibration of motor positions.
• 18. Fill a fresh syringe (C) through a blunt 18 G stainless steel needle with the previously prepared RNA mixture of step 6. The volume should be approximately […] of total formulation volume+25 μl (dead-volume). Make sure to remove all air bubbles by tapping. • 19. Fill a fresh syringe (D) through a blunt 18 G stainless steel needle with the Lipid master mix. The volume should be approximately 35% of total formulation volume+25 μl (dead-volume). Again, Make sure to remove all bubbles. • 20. Attach the syringes in the correct orientation, syringe A on the left and syringe B on the right • 21. Load the ‘Receiving station’ with appropriate sized collection containers (2 ml Eppendorf tubes). • 22. Press the microfluidic chip to the back of the machine with your thumb and hold, press the ‘Button 1’ (40 g). […]

[2] = Encapsulation efficiency, RiboGreen RNA assay (Method A); assay type: physicochemical; details: LNP formulated by Method A
Protocol: as §1
• 1. Preparation of sample stock solutions: In the top row of the 96-well plate (Row A in the plate), add 297 μL of TE buffer pH 7.4 to a single well for each sample plus a single well for a PBS blank using a multichannel pipette. • 2. Add 3 μL of sample (at 0.5 mg/ml) to these wells for a final volume of 300 μL. Add 3 μL of PBS to the blank well. Pipette to mix. This is your stock solution for each sample. The final RNA concentration of these stock solutions should be approximately 4-7 μg/mL. • 3. mRNA-LNP sample setup: • a. Add 50 μL of TE buffer pH 7.5 to the two wells directly below each sample (Rows B and C in the plate). • b. Add 50 μL of sample stock solution from Row A into the wells in Rows B and C (this assay is run in duplicate. All liquid handling should be done using a multichannel pipette). • c. Add 50 μL of Triton buffer to the wells in Rows D and E (in the plate) below each sample. • d. Add 50 μL of sample stock solution from Row A into the wells in Rows D and E. • 4. RiboGreen RNA standard curve setup: Dilute the RNA standard to produce an RNA stock at a final concentration of 20 μg/mL in TE buffer pH 7.4. The final volume should be 150 μL. Set up a standard curve (in duplicate) as using the RNA stock (20 μg/mL siRNA), TE buffer pH 7.5, and Triton buffer according the Table 2 below.
• 5. Once samples and standard curve are plated, incubate the plate at 37° C. for 10 min to lyse mRNA-LNP in the presence of Triton X-100. • 6. Meanwhile, prepare RiboGreen Solution: Sum the total number of sample wells and standard curve wells. Add three to this number, and multiply the total by 100. This is the total volume, in μL, of RiboGreen Solution needed for this assay. In a 15 mL RNAse-free Falcon tube, dilute the RiboGreen Reagent 1:100 into TE buffer pH 7.5 to the total volume calculated. • 7. Addition of RiboGreen Solution and sample readings: Remove a 96-well plate from 37° C. incubator; let it cool to room temperature as RiboGreen binding is somewhat temperature dependent. Add 100 μL of RiboGreen Solution to each well. Pop any air bubbles with a needle. Read using fluorescent plate reader (excitation=480, emission=525). • 8. Sample analysis: Use the data generated by the RiboGreen standard curve to calculate the concentration of mRNA. Transfection Efficiency with Luciferase-mRNA (Method A)

SMILES	Zeta potential (mV) [1]	PDI [1]	Size (nm) [1]	EE (%) [2]
CCCCCCCCC(CCCCCC)C(=O)OCCCCCCN(CCCCO)CCCCCCOC(CCCCCCC)O[Si](C)(C)CCCCCCCC (stereo not shown) [Example 129, 15-heptyl-7-(4-hydroxybutyl)-17,17-dimethyl-14,16-dioxa-7-aza-17-silapentacosyl 2-hexyldecanoate]	−12.48 mV	0.054	132.9 nm	96%
CCCCCCCCOC(CCCCCN(CCCCO)CCCCCCOC(=O)C(CCCCCC)CCCCCCCC)O[Si](C)(C)OCCCCCCCC (stereo not shown) [Example 130, 7-(4-hydroxybutyl)-15,15-dimethyl-13-(octyloxy)-14,16-dioxa-7-aza-15-silatetracosyl 2-hexyldecanoate]	−11.85 mV	0.418	587.6 nm	90%
CCCCCCCCO[Si](C)(C)OC(CCCCCCC)OCCCCCCN(CCCCO)CCCCCCOC(=O)C(CCCCCC)CCCCCCCC (stereo not shown) [Example 131, 15-heptyl-7-(4-hydroxybutyl)-17,17-dimethyl-14,16,18-trioxa-7-aza-17-silahexacosyl 2-hexyldecanoate]	−16.95 mV	0.219	244.2 nm	95%
CCCCCCCCC(CCCCCC)C(=O)OCCCCCCN(CCCCO)CCCCCCOC(CCCCCCC)O[Si](C)(C)O[Si](C)(C)CCCCCCCC (stereo not shown) [Example 133, 15-heptyl-7-(4-hydroxybutyl)-17,17,19,19-tetramethyl-14,16,18-trioxa-7-aza-17,19-disilaheptacosyl 2-hexyldecanoate]	−10.68 mV	0.039	135.7 nm	97%
CCCCCCCCOC(CCCCCN(CCCCO)CCCCCCOC(=O)C(CCCCCC)CCCCCCCC)O[Si](C)(C)O[Si](C)(C)OCCCCCCCC (stereo not shown) [Example 134, 6-((4-hydroxybutyl)(6-(octyloxy)-6-((1,1,3,3-tetramethyl-3-(octyloxy)disiloxaneyl)oxy)hexyl)amino)hexyl 2-hexyldecanoate]	−11.99 mV	0.006	145.8 nm	98%
CCCCCCCCO[Si](C)(C)O[Si](C)(C)OC(CCCCCCC)OCCCCCCN(CCCCO)CCCCCCOC(=O)C(CCCCCC)CCCCCCCC (stereo not shown) [Example 135, 15-heptyl-7-(4-hydroxybutyl)-17,17,19,19-tetramethyl-14,16,18,20-tetraoxa-7-aza-17,19-disilaoctacosyl 2-hexyldecanoate]	−16.11 mV	0.158	271.2 nm	91%
CCCCCCCCOC(CCCCCN(CCCCO)CCCCCCOC(=O)C(CCCCCC)CCCCCCCC)O[Si](C)(C)OCC(CCCCCC)CCCCCCCC (stereo not shown) [Example 136, 18-hexyl-7-(4-hydroxybutyl)-15,15-dimethyl-13-(octyloxy)-14,16-dioxa-7-aza-15-silahexacosyl 2-hexyldecanoate]	−13.28 mV	0.259	305.2 nm	90%
CCCCCCCCC(CCCCCC)CO[Si](C)(C)OC(CCCCCCC)OCCCCCCN(CCCCO)CCCCCCOC(=O)C(CCCCCC)CCCCCCCC (stereo not shown) [Example 137, 15-heptyl-20-hexyl-7-(4-hydroxybutyl)-17,17-dimethyl-14,16,18-trioxa-7-aza-17-silaoctacosyl 2-hexyldecanoate]	−16.61 mV	0.096	169.2 nm	97%
CCCCCCCCOC(CCCCCCC)O[Si](C)(C)CCCCCCN(CCCCO)CCCCCCOC(=O)C(CCCCCC)CCCCCCCC (stereo not shown) [Example 138, 16-heptyl-7-(4-hydroxybutyl)-14,14-dimethyl-15,17-dioxa-7-aza-14-silapentacosyl 2-hexyldecanoate]	−16.19 mV	0.104	211.7 nm	95%
CCCCCCCCOC(CCCCCCC)O[Si](C)(C)OCCCCCCN(CCCCO)CCCCCCOC(=O)C(CCCCCC)CCCCCCCC (stereo not shown) [Example 139, 17-heptyl-7-(4-hydroxybutyl)-15,15-dimethyl-14,16,18-trioxa-7-aza-15-silahexacosyl 2-hexyldecanoate]	−12.3 mV	0.14	137.4 nm	94%
CCCCCCCCC(CCCCCC)C(=O)OCCCCCCN(CCCCO)CCCCCCO[Si](C)(C)OC(CCCCCCC)OCCCCCCC (stereo not shown) [Example 140, 17-heptyl-7-(4-hydroxybutyl)-15,15-dimethyl-14,16,18-trioxa-7-aza-15-silapentacosyl 2-hexyldecanoate]	−4.5 mV	0.05	130.8 nm	93%
CCCCCCCCCOC(CCCCCCC)O[Si](C)(C)OCCCCCCN(CCCCO)CCCCCCOC(=O)C(CCCCCC)CCCCCCCC (stereo not shown) [Example 141, 17-heptyl-7-(4-hydroxybutyl)-15,15-dimethyl-14,16,18-trioxa-7-aza-15-silaheptacosyl 2-hexyldecanoate]	−10.6 mV	0.11	129.5 nm	95%
CCCCCCCCOC(CCCCCC)O[Si](C)(C)OCCCCCCN(CCCCO)CCCCCCOC(=O)C(CCCCCC)CCCCCCCC (stereo not shown) [Example 142, 17-hexyl-7-(4-hydroxybutyl)-15,15-dimethyl-14,16,18-trioxa-7-aza-15-silahexacosyl 2-hexyldecanoate]	−12.8 mV	0.06	125.1 nm	96%
